According to paper PMC6597546, “Identification of a potent benzoxaborole drug candidate for treating cryptosporidiosis” (Nature Communications, 2019):
Several values for one entry are separate records, joined by “and”; a condition that tells them apart may be missing. Identical values can stand only once.

Test system: C. parvum (Bunch Grass Farms Iowa isolate)
Assay: Neonatal calf model of cryptosporidiosis
Type: in vivo
Design: key to Oocyst Shedding, individual calves / Oocyst Shedding: C. parvum abundance per gram of fecal dry matter (qPCR); key to Fecal Consistency Score, individual calves / Fecal Consistency Score: score 1 = normal, 3 = severely abnormal
Details: for Fecal Consistency Score / Oocyst Shedding: 10 mg/kg every 12 h with delayed start
Protocol: All calf efficacy studies were performed as previously described. These studies were approved by the University of Vermont Institutional animal Care and Use Committee, and conducted in compliance with the USDA-APHIS “Blue Book”, available at www.aphis.usda.gov/animal-welfare. Holstein bull calves were acquired at birth from Green Mountain Dairy (Sheldon, VT), given synthetic colostrum with 200 g of IgG (Land O’Lakes, Ardent Hills, MO) and bovine coronavirus and Escherichia coli antibodies (First Defense Bolus, Immuncell Corporation, Portland, ME) within 2 h of birth, and transported to UVM. Calves were group-housed initially, and infected at 24–48 h of age during an interruption in bottle feeding by oral administration of ∼5 × 10^7 C. parvum Iowa isolate oocysts (Bunch Grass Farms, Deary, ID) suspended in 10 mL of water. They were then moved to individual raised pens, and observed twice daily at feeding times for clinical signs, which were quantified according to a previously described standardized scoring rubric. Data on fecal consistency, dehydration and overall health were collected, in each case with a score of 1 being normal and 3 being severely abnormal (scoring rubric in Supplementary Table 2). Clinical microbiologic studies for adventitious infectious agents including Salmonella culture, aerobic bacterial culture with E. coli genotyping, rotavirus, and coronavirus testing were performed on all calves at the onset of diarrhea by the Cornell Animal Health Diagnostic Center (Ithaca, NY). Animals with severe diarrhea or other symptoms were supported aggressively, including with administration of oral electrolytes, intravenous fluids and flunixin meglumine (Banamine, Merck) as needed. […] Daily fecal samples were obtained from collections bins located under each pen. Fecal samples used for parasite quantification were dried at 90 °C until stable in weight, and C. parvum abundance per gram of fecal dry matter was measured using qPCR and the primers Cp18s forward and Cp18s reverse.

Structure (SMILES): CC1(C)OB(O)c2cc(NC(=O)c3ccc(-n4cccn4)cc3Cl)ccc21 [AN7973]
- Fecal Consistency Score (Calf 1, Day 2): 1.67
- Oocyst Shedding (Calf 1, Day 2): 4028
- Fecal Consistency Score (Calf 1, Day 3): 2
- Oocyst Shedding (Calf 1, Day 3): 3180923
- Fecal Consistency Score (Calf 1, Day 4): 2.33
- Oocyst Shedding (Calf 1, Day 4): 4800342
- Fecal Consistency Score (Calf 1, Day 5): 1.5
- Oocyst Shedding (Calf 1, Day 5): 120115
- Fecal Consistency Score (Calf 1, Day 6): 1
- Oocyst Shedding (Calf 1, Day 6): 5946
- Fecal Consistency Score (Calf 1, Day 7): 1
- Oocyst Shedding (Calf 1, Day 7): 4811
- Fecal Consistency Score (Calf 1, Day 8): 1
- Oocyst Shedding (Calf 1, Day 8): 154
- Fecal Consistency Score (Calf 1, Day 9): 1
- Oocyst Shedding (Calf 1, Day 9): 1
- Fecal Consistency Score (Calf 1, Day 10): 1
- Oocyst Shedding (Calf 1, Day 10): 1
- Fecal Consistency Score (Calf 1, Day 11): 1
- Oocyst Shedding (Calf 1, Day 11): 164
- Fecal Consistency Score (Calf 1, Day 12): 1
- Oocyst Shedding (Calf 1, Day 12): 1032
- Fecal Consistency Score (Calf 1, Day 13): 1
- Oocyst Shedding (Calf 1, Day 13): 1
- Fecal Consistency Score (Calf 1, Day 14): 1
- Oocyst Shedding (Calf 1, Day 14): 1
- Fecal Consistency Score (Calf 2, Day 0): 1
- Oocyst Shedding (Calf 2, Day 0): 1
- Fecal Consistency Score (Calf 2, Day 1): 3
- Oocyst Shedding (Calf 2, Day 1): 15983
- Fecal Consistency Score (Calf 2, Day 2): 2
- Oocyst Shedding (Calf 2, Day 2): 572309
- Fecal Consistency Score (Calf 2, Day 3): 2.67
- Oocyst Shedding (Calf 2, Day 3): 9928800
- Fecal Consistency Score (Calf 2, Day 4): 3
- Oocyst Shedding (Calf 2, Day 4): 10753010
- Fecal Consistency Score (Calf 2, Day 5): 2.33
- Oocyst Shedding (Calf 2, Day 5): 89411
- Fecal Consistency Score (Calf 2, Day 6): 1
- Oocyst Shedding (Calf 2, Day 6): 36783
- Fecal Consistency Score (Calf 2, Day 7): 1
- Oocyst Shedding (Calf 2, Day 7): 6676
- Fecal Consistency Score (Calf 2, Day 8): 1
- Oocyst Shedding (Calf 2, Day 8): 2648
- Fecal Consistency Score (Calf 2, Day 9): 1
- Oocyst Shedding (Calf 2, Day 9): 2147
- Fecal Consistency Score (Calf 2, Day 10): 1
- Oocyst Shedding (Calf 2, Day 10): 401
- Fecal Consistency Score (Calf 2, Day 11): 1
- Oocyst Shedding (Calf 2, Day 11): 10
- Fecal Consistency Score (Calf 2, Day 12): 1
- Oocyst Shedding (Calf 2, Day 12): 1
- Fecal Consistency Score (Calf 2, Day 13): 1
- Oocyst Shedding (Calf 2, Day 13): 1
- Fecal Consistency Score (Calf 2, Day 14): 1
- Oocyst Shedding (Calf 2, Day 14): 1
- Fecal Consistency Score (Calf 3, Day 0): 1
- Oocyst Shedding (Calf 3, Day 0): 1
- Fecal Consistency Score (Calf 3, Day 1): 3
- Oocyst Shedding (Calf 3, Day 1): 4675
- Fecal Consistency Score (Calf 3, Day 2): 2.33
- Oocyst Shedding (Calf 3, Day 2): 376713
- Fecal Consistency Score (Calf 3, Day 3): 2.5
- Oocyst Shedding (Calf 3, Day 3): 3074178
- Fecal Consistency Score (Calf 3, Day 4): 3
- Oocyst Shedding (Calf 3, Day 4): 1097033
- Fecal Consistency Score (Calf 3, Day 5): 2.33
- Oocyst Shedding (Calf 3, Day 5): 172967
- Fecal Consistency Score (Calf 3, Day 6): 1.5
- Oocyst Shedding (Calf 3, Day 6): 10727
- Fecal Consistency Score (Calf 3, Day 7): 1
- Oocyst Shedding (Calf 3, Day 7): 1
- Fecal Consistency Score (Calf 3, Day 8): 1
- Oocyst Shedding (Calf 3, Day 8): 363
- Fecal Consistency Score (Calf 3, Day 9): 1
- Oocyst Shedding (Calf 3, Day 9): 1134
- Fecal Consistency Score (Calf 3, Day 10): 1
- Oocyst Shedding (Calf 3, Day 10): 624
- Fecal Consistency Score (Calf 3, Day 11): 1
- Oocyst Shedding (Calf 3, Day 11): 1
- Fecal Consistency Score (Calf 3, Day 12): 1
- Oocyst Shedding (Calf 3, Day 12): 1
- Fecal Consistency Score (Calf 3, Day 13): 1
- Oocyst Shedding (Calf 3, Day 13): 28
- Fecal Consistency Score (Calf 3, Day 14): 1
- Oocyst Shedding (Calf 3, Day 14): 1
- Oocyst Shedding, individual calves (10 mg/kg every 24 h on days 2–8, Day 0): 100 and 331 and 774
- Oocyst Shedding, individual calves (10 mg/kg every 24 h on days 2–8, Day 1): 6698 and 100 (2×)
- Oocyst Shedding, individual calves (10 mg/kg every 24 h on days 2–8, Day 3): 644594 and 196913 and 724661
- Oocyst Shedding, individual calves (10 mg/kg every 24 h on days 2–8, Day 4): 119580 and 31776 and 1355
- Oocyst Shedding, individual calves (10 mg/kg every 24 h on days 2–8, Day 5): 573 and 17468 and 8981
- Oocyst Shedding, individual calves (10 mg/kg every 24 h on days 2–8, Day 7): 67293 and 6611 and 7598
- Oocyst Shedding, individual calves (10 mg/kg every 24 h on days 2–8, Day 9): 54864 and 100 and 1163
- Oocyst Shedding, individual calves (10 mg/kg every 24 h on days 2–8, Day 10): 139951 and 100 and 1010
- reduction of total burden of fecal C. parvum shedding (AUC) (bovine, in vivo): over 90%
- reduction of fecal C. parvum shedding rate (first three days of treatment): nearly five logs
- Fecal Consistency Score, individual calves (scale 1 normal to 3 severely abnormal, 5 mg/kg every 12 h on days 2–8, Day 0): 1
- Fecal Consistency Score, individual calves (scale 1–3, 5 mg/kg every 12 h on days 2–8, Day 1): 1
- Fecal Consistency Score, individual calves (scale 1–3, 5 mg/kg every 12 h on days 2–8, Day 2): 1
- Fecal Consistency Score, individual calves (scale 1–3, 5 mg/kg every 12 h on days 2–8, Day 3): 1
- Fecal Consistency Score, individual calves (scale 1–3, 5 mg/kg every 12 h on days 2–8, Day 4): 1
- Fecal Consistency Score, individual calves (scale 1–3, 5 mg/kg every 12 h on days 2–8, Day 5): 1
- Fecal Consistency Score, individual calves (scale 1–3, 5 mg/kg every 12 h on days 2–8, Day 6): 1
- Fecal Consistency Score, individual calves (scale 1–3, 5 mg/kg every 12 h on days 2–8, Day 7): 1
- Fecal Consistency Score, individual calves (scale 1–3, 5 mg/kg every 12 h on days 2–8, Day 8): 1
- Fecal Consistency Score, individual calves (scale 1–3, 5 mg/kg every 12 h on days 2–8, Day 9): 1
- Fecal Consistency Score, individual calves (scale 1–3, 5 mg/kg every 12 h on days 2–8, Day 10): 1
- Fecal Consistency Score, individual calves (scale 1–3, 10 mg/kg every 24 h on days 2–8, Day 0): 1
- Fecal Consistency Score, individual calves (scale 1–3, 10 mg/kg every 24 h on days 2–8, Day 1): 1
- Fecal Consistency Score, individual calves (scale 1–3, 10 mg/kg every 24 h on days 2–8, Day 2, 10 mg/kg): 1.33 (2×) and 2.67
- Fecal Consistency Score, individual calves (scale 1–3, 10 mg/kg every 24 h on days 2–8, Day 3, 10 mg/kg): 2 (2×) and 2.33
- Fecal Consistency Score, individual calves (scale 1–3, 10 mg/kg every 24 h on days 2–8, Day 4, 10 mg/kg): 2.33 and 1.33 (2×)
- Fecal Consistency Score, individual calves (scale 1–3, 10 mg/kg every 24 h on days 2–8, Day 5): 1
- Fecal Consistency Score, individual calves (scale 1–3, 10 mg/kg every 24 h on days 2–8, Day 6): 1
- Fecal Consistency Score, individual calves (scale 1–3, 10 mg/kg every 24 h on days 2–8, Day 7): 1
- Fecal Consistency Score, individual calves (scale 1–3, 10 mg/kg every 24 h on days 2–8, Day 8): 1
- Fecal Consistency Score, individual calves (scale 1–3, 10 mg/kg every 24 h on days 2–8, Day 9): 1
- Fecal Consistency Score, individual calves (scale 1–3, 10 mg/kg every 24 h on days 2–8, Day 10): 1
- effect on dehydration (several of the treatment regimens): significantly reduced the overall severity of dehydration
- tolerability in calves (twice daily assessment of alertness, interaction, appetite): tolerated AN7973 well
